The values below come from US9464128B2, “Site-specific pegylated linear salmon calcitonin analogues” (INSTITUTE OF PHARMACOLOGY AND TOXICOLOGY ACADEMY OF …, priority 2007, dated 2016).

The subject of series [1] is rats. The series can be described thus: Calcium-reducing activity, subcutaneous injection to abdomens of rats (blood calcium determination). The format is in vivo, rat. The procedure: The calcium-reducing activity of sCT(L)s and their PEGylated analogues was determined by administering them to abdomens of rats via subcutaneous injection, according to the method described in the literature (cf. Qian Deming, Shen Genquan, Ke Ruolun; Biological Assay of Calcitonin by Blood Calcium Determination in Rats, CHINESE JOURNAL OF PHARMACEUTICAL ANALYSIS, 1994, 14(3): 30-34).
The activity results as determined were listed as follows, while the reference activity of salmon calcitonin being 4500 IU/mg.

In series [2] the test system is female Wistar rats. The series can be described thus: Long-acting performance study: bone metabolism (alkaline phosphatase, serum calcium, osteocalcin) in castrated rats. The format is in vivo, rat. The settings on record: for Alkaline phosphatase / Osteocalcin / Serum calcium: n = 10. The procedure:
(§1) 60 female Wistar rats, body weight 250-280 g, 16 weeks aged, were randomly divided into six groups: pseudo-castrated contrast group (10 rats); castrated contrast group (10 rats); calcitonin group (10 rats, twice every week, 0.036 μg/kg body weight/time); a low dose group of compound 12 (10 rats, twice every week, 0.216 μg/kg body weight/time); a high dose group of compound (10 rats, twice every week, 1.08 μg/kg body weight/time); and a high dose group of compound (10 rats, once every week, 1.08 μg/kg body weight/time). In each of the groups, the administration was given subcutaneously. During the experiment, the rats in each of the groups freely fed on standard solid forage and drank water. Except for the high dose group of compound 12 with administration once every week, blood samples were respectively taken from the orbits of the rats in other groups at the 6th week of administration, and subjected to the determination of osteocalcin, serum calcium and alkaline phosphatase (Table 2). At the end of the 12th week of administration, in addition to osteocalcin, serum calcium and alkaline phosphatase (Table 3), the bone densities of lumbar vertebrae, tibia and femur in the rats of each of the groups were determined (Table 4).

The test system of series [3] is female Wistar rats. The series can be described thus: Long-acting performance study: bone density of lumbar vertebrae, femur and tibia in castrated rats. The format is in vivo, rat. As to conditions: for Bone density, lumbar vertebrae / Bone density, tibia / Bone density, femur: 12th week, n = 10; for influence on bone density of lumbar vertebrae (in words): 12 weeks, high dose group of compound 12, positive contrast sCT group. The procedure:
as §1

Series [4] deals with rats. The settings on record: reference standard; cited from earlier work.
For series [5] the following is noted: kidney homogenate; cited from earlier work.
Where [6] appears, read: 6th week, high dose 1.08 μg/kg s.c. twice every week.
Where [7] appears, read: 6th week, low dose 0.216 μg/kg s.c. twice every week.
Where [8] appears, read: 12th week, high dose 1.08 μg/kg s.c. twice every week.
Where [9] appears, read: 12th week, low dose 0.216 μg/kg s.c. twice every week.
Where [10] appears, read: high dose 1.08 μg/kg s.c. once/week.
Setting [11] is: high dose 1.08 μg/kg s.c. twice/week.
[12] abbreviates: low dose 0.216 μg/kg s.c. twice/week.
[13] abbreviates: 6th week, 0.036 μg/kg s.c. twice every week.
Setting [14] is: 12th week, 0.036 μg/kg s.c. twice every week.

As for “[D-Ala^1,Cys^7(mPEG5000-MAL),D-Ala^30]sCT [Compound 12]”, in the series with rats [1], the “Activity (calcium-reducing activity)” value is on record as 1467 IU/mg. The Alkaline phosphatase is reported as 180.0 ± 19.4 u/100 ml with female Wistar rats [2] (setting [6]), 187.0 ± 30.4 u/100 ml with female Wistar rats [2] (setting [7]), 188.2 ± 51.2 u/100 ml with female Wistar rats [2] (setting [8]) and 202.4 ± 44.8 u/100 ml in the series on female Wistar rats [2] (setting [9]). The Osteocalcin amounted to 3.81 ± 0.24 ng/100 ml with female Wistar rats [2] (setting [6]), 3.77 ± 0.25 ng/100 ml in the series on female Wistar rats [2] (setting [7]), 3.95 ± 0.24 ng/100 ml with female Wistar rats [2] (setting [8]) and 4.01 ± 0.25 ng/100 ml with female Wistar rats [2] (setting [9]). The Serum calcium worked out at 9.2 ± 0.2 mg/100 ml in the series with female Wistar rats [2] (setting [6]), 9.8 ± 0.3 mg/100 ml with female Wistar rats [2] (setting [7]), 9.4 ± 0.4 mg/100 ml in the series on female Wistar rats [2] (setting [8]) and 9.8 ± 0.3 mg/100 ml with female Wistar rats [2] (setting [9]). For the same substance, the “influence on bone metabolism of rats compared with sCT group (in words)” value in the series with female Wistar rats [2] (high dose group, 6th and 12th weeks of administration) is “substantially equivalent to the positive contrast sCT group”. Moreover, the “Bone density, lumbar vertebrae” value is given as 0.182 ± 0.014 g/cm^2 in the series with female Wistar rats [3] (setting [10]), 0.181 ± 0.018 g/cm^2 in the series with female Wistar rats [3] (setting [11]) and 0.175 ± 0.021 g/cm^2 in the series with female Wistar rats [3] (setting [12]). For the same substance, the “Bone density, tibia” value in the series with female Wistar rats [3] (setting [10]) came out at 0.251 ± 0.015 g/cm^2; with female Wistar rats [3] (setting [11]), 0.256 ± 0.017 g/cm^2; in the series with female Wistar rats [3] (setting [12]) it was 0.245 ± 0.014 g/cm^2. Also, the “Bone density, femur” value was determined as 0.241 ± 0.017 g/cm^2 in the series with female Wistar rats [3] (setting [11]) and 0.240 ± 0.028 g/cm^2 in the series with female Wistar rats [3] (setting [12]). The “influence on bone density of lumbar vertebrae (in words)” value with female Wistar rats [3] is reported as “increased the bone density of lumbar vertebrae”.

“[D-Ala^1,Cys^7,D-Ala^30]sCT [Compound 1]”: the “Activity (calcium-reducing activity)” value in the series with rats [1] was found to be 5202 IU/mg.

With “[Val^1, Ala^7, Cys^16(mPEG5000-MAL), Des-19-22, Ala^30]sCT [Compound 14]”, the “Activity (calcium-reducing activity)” value with rats [1] amounted to 987 IU/mg.

For the substance “[Val^1, Ala^7, Cys^19(mPEG5000-MAL),Des-20-22, Ala^30]sCT [Compound 21]”, in the series on rats [1], the “Activity (calcium-reducing activity)” value was 1208 IU/mg.

As for “[Val^1, Cys^7(mPEG5000-MAL),Des-19-22, Ala^30]sCT [Compound 16]”, in the series with rats [1], the “Activity (calcium-reducing activity)” value was found to be 717 IU/mg.

“[Val^1,Ala^7,Cys^16,Ala^30,Des-19-22]sCT [Compound 3]”: in the series on rats [1], the “Activity (calcium-reducing activity)” value is recorded as 3394 IU/mg.

In the case of “[Val^1,Ala^7,Cys^19(mPEG5000-MAL),Des-20-21, Ala^30]sCT [Compound 22]”, in the series with rats [1], the “Activity (calcium-reducing activity)” value was determined as 1707 IU/mg.

With “[Val^1,Ala^7,Cys^19,Ala^30,Des-20-21]sCT [Compound 11]”, the “Activity (calcium-reducing activity)” value with rats [1] is recorded as 379 IU/mg.

In the case of “[Val^1,Ala^7,Cys^19,Ala^30,Des-20-22]sCT [Compound 10]”, in the series with rats [1], the “Activity (calcium-reducing activity)” value was 892 IU/mg.

Turning to “[Val^1,Ala^7,Gln^11,18,Cys^16(mPEG5000-MAL),Des-19-22,Ala^30]sCT [Compound 15]”, in the series on rats [1], the “Activity (calcium-reducing activity)” value is 301 IU/mg.

On to “[Val^1,Ala^7,Gln^11,18,Cys^16,Ala^30,Des-19-22]sCT [Compound 4]”, for which the “Activity (calcium-reducing activity)” value in the series with rats [1] is 807 IU/mg.

For the substance “[Val^1,Cys^7(mPEG5000-MAL), Gln^11,18,Des-19-22,Ala^30]sCT [Compound 20]”, the “Activity (calcium-reducing activity)” value in the series on rats [1] is 1265 IU/mg.

As for “[Val^1,Cys^7(mPEG5000-MAL), Gln^11,Des-19-22, Ala^30]sCT [Compound 19]”, the “Activity (calcium-reducing activity)” value in the series with rats [1] turned out to be 815 IU/mg.

For “[Val^1,Cys^7(mPEG5000-MAL), Gln^18,Des-19-22, Ala^30]sCT [Compound 18]”, in the series on rats [1], the “Activity (calcium-reducing activity)” value is given as 763 IU/mg.

“[Val^1,Cys^7(mPEG5000-MAL),Des-19,Ala^30]sCT [Compound 13]”: the “Activity (calcium-reducing activity)” value in the series on rats [1] is on record as 438 IU/mg.

Turning to “[Val^1,Cys^7(mPEG5000-MAL),Des-19,Ala^30]sCT [Compound 17]”, in the series with rats [1], the “Activity (calcium-reducing activity)” value was determined as 1921 IU/mg.

For the substance “[Val^1,Cys^7,Ala^30,Des-19]sCT [Compound 6]”, in the series with rats [1], the “Activity (calcium-reducing activity)” value is given as 4347 IU/mg.

Turning to “[Val^1,Cys^7,Des-19,Ala^30]sCT [Compound 2]”, the “Activity (calcium-reducing activity)” value with rats [1] worked out at 1136 IU/mg.

As to “[Val^1,Cys^7,Des-19-22,Ala^30]sCT [Compound 5]”, in the series on rats [1], the “Activity (calcium-reducing activity)” value was found to be 67 IU/mg.

With “[Val^1,Cys^7,Gln^11,18,Ala^30,Des-19-22]sCT [Compound 9]”, the “Activity (calcium-reducing activity)” value with rats [1] is listed as 920 IU/mg.

Consider “[Val^1,Cys^7,Gln^11,Ala^30,Des-19-22]sCT [Compound 8]”, for which the “Activity (calcium-reducing activity)” value in the series with rats [1] is given as 344 IU/mg.

Consider “[Val^1,Cys^7,Gln^18,Ala^30,Des-19-22]sCT [Compound 7]”, for which the “Activity (calcium-reducing activity)” value in the series on rats [1] was found to be 233 IU/mg.

With salmon calcitonin [reference compound], in the series with female Wistar rats [2] (setting [13]), the Alkaline phosphatase amounted to 179.8 ± 31.4 u/100 ml, the Osteocalcin was 3.90 ± 1.1 ng/100 ml and the Serum calcium was found to be 9.3 ± 0.2 mg/100 ml. Moreover, in the series with female Wistar rats [2] (setting [14]), the Alkaline phosphatase is recorded as 200.9 ± 40.1 u/100 ml, the Osteocalcin is given as 3.38 ± 0.17 ng/100 ml and the Serum calcium is 9.3 ± 0.2 mg/100 ml. In the series with female Wistar rats [3] (0.036 μg/kg s.c. twice/week), the “Bone density, femur” value turned out to be 0.242 ± 0.027 g/cm^2; the “Bone density, lumbar vertebrae” value was determined as 0.181 ± 0.013 g/cm^2; the “Bone density, tibia” value amounted to 0.247 ± 0.127 g/cm^2. Moreover, the “influence on bone density of lumbar vertebrae (in words)” value with female Wistar rats [3] is recorded as “increased the bone density of lumbar vertebrae”. Also, the “reference activity of salmon calcitonin” value with rats [4] is 4500 IU/mg. Besides, in series [5], the metabolic half life is reported as 4.8 min.
